In data set [1] the test system is Pael receptor. Description: Immunocytochemistry, intracellular distribution of over-expressed Pael receptors in SH-SY5Y cells. Type of data set: cell-based, human. The conditions noted are these: SH-SY5Y cells transfected with Pael receptor plasmids, treated for 6 hours. The procedure: For immunocytochemistry, a human Pael receptor expression vector (1 μg per sample) was gene-transferred, or was gene-transferred in combination with 0.3 μg of red fluorescent protein expression vector (pDsRed1-N1, Clontech) having endoplasmic reticulum localization sequence of calreticulin or Golgi body localization sequence of human β1, 4-galactosyltransferase into SH-SY5Y cells inoculated on a 8-well chamber slide. After 20 hours of culturing, the cells were exposed to 20 μM lactacystin for 16 hours. After washed in phosphate buffered saline, the cells were fixed with 0.2% glutaraldehyde and 2% formaldehyde. Subsequently, the cells were stained with anti-human Pael receptor antibodies or anti-BiP antibodies. For immunohistochemistry, the carboxyl terminal site (541 to 600 amino residues) of mouse Pael receptor was expressed as a GST fusion protein in Escherichia coli. The anti-Pael receptor polyclonal antibody was prepared against a recombinant protein from which the GST portion had been removed. 14 μm-thick frozen sections of the mouse C57BL/6 brain tissue were allowed to react with anti-Pael receptor antibodies (1:200 dilution), anti-TH antibodies (Chemicon, 1:100), anti-NeuN antibodies (Chemicon, 1:200) or anti-CNPase antibodies (Sigma, 1:100). The primary antibody was stained with Alexa 488 or Alexa 546 (Molecular Probes)-labeled secondary antibody. The stained cells or sections were mounted using SlowFade (Molecular probes), and then observed under a confocal laser fluorescence microscope (Fluoview, Olympus).
Furthermore, to confirm the involvement of cell death induced by misfolded proteins in cell death resulting from overexpression of Pael receptors, intracellular distribution of Pael receptors in the presence or the absence of lactacystin was examined. […] Expression plasmids for Pael receptors were gene-transferred to SH-SY5Y cells, and then the cells were cultured in the presence (middle and lower panels) or the absence (upper panel) of lactacystin for 6 hours. […]

For data set [2], the system named is Pael receptor. Description: Pulse-chase experiment, turnover of 35S-labeled Pael receptor. Type of data set: cell-based, human. The conditions noted are these: 10 μM lactacystin, relative to level at time 0. The procedure: Pael receptors having FLAG-tagged carboxyl termini (Pael receptor-FLAG) and expression plasmids for Parkin or control plasmids were gene-transferred to SH-SY5Y cells. 36 hours later, the cells were cultured for 1 hour in Dulbecco's modified eagle's medium (M/C-free DMEM) containing 5% fetal calf serum (FCS) but containing no methionine/cysteine under conditions involving the presence or the absence of 10 μM lactacystin. The cells were then labeled at 37° C. for 30 minutes by adding 200 μCi/ml ^35S-methionine/cysteine to the 5% FCS-containing M/C-free DMEM in the presence or the absence of 10 μM lactacystin. […] The metabolically labeled Pael receptor was quantified using Image Gauge software (Fujifilm). Next, to examine whether Parkin degrades the Pael receptor in the ubiquitin-proteasome system, the turnover rate of the Pael receptor was measured under conditions involving the presence or the absence of Parkin by the pulse-chase experiment (FIG. 9). […] Subsequently, ^35S-methionine/cysteine were added for labeling, and then the cells were chased for the time indicated in FIG. 9 in the presence (Lc +) or the absence (Lc −) of 10 μM lactacystin. ^35S-labeld Pael receptors were immunoprecipitated, detected by radioautography (FIG. 9 left), and then quantified by phosphor imaging (FIG. 9 right). […]

Another data set relates to SH-SY5Y cells. Description: Cell death assay in SH-SY5Y cells with or without Pael receptor overexpression. The data set is classed as cell-based. The text has this: Descriptions concerning expression plasmids for Parkin, Parkin variants, UBCH6, UBCH7 and Ubiquitin are as described in Imai, Y. et al. (2000) J Biol Chem 275, 35661-35664. The full-length complementary strand DNAs (cDNAs) of human and mouse Pael receptors, human ETBR-LP-2, human UBC6, UBC7 and E2-25K were obtained by reverse transcription (RT)-PCR. The full-length cDNA of ETA-R and that of ETB-R were obtained from the RIKEN Gene Bank. Recombinant GST-Parkin, GST-A Ex 4, 6×His tagged UBC6 and UBC7 were produced in the Escherichia coli BL21 strain (DE3) pLysS (Novagen). Site-directed mutagenesis to the active center cysteine of UBC6 and UBC7 was performed by the PCR method. UBC6 of a putative membrane insertion site-deficient type (UBC6ΔC; 1 to 288 amino residues) is expressed better than wild type UBC6 in Escherichia coli and has high enzyme activity, so that UBC6ΔC was subjected to in vitro ubiquitination assay. Anti-Myc (9E10), anti-HA (Y-11), anti-Ubiquitin (FL-76), anti-BiP (N-20) and anti-actin (C-2) antibodies were purchased from Santa Cruz Biotech. Anti-FLAG (M2), anti-HA (3F10), anti-Ubiquitin (1B3), anti-GluR4 (AB1508) and anti-NSE (BBS/NC/VI-H14) were purchased from Sigma, Roche Diagnostics, MBL (Nagoya, Japan), Chemicon and Dako, respectively. Anti-UCH-L1 antibodies were provided by Dr. Keiji WADA (National Center of Neurology and Psychiatry, Japan). 293T cells derived from a human fetal kidney and SH-SY5Y cells derived from neuroblastoma were subjected to gene transfer, immunoprecipitation, Western blot, immunocytochemistry and cell death assay according to the method as described in Imai et al., 2000.
To confirm this prediction, the effect of a proteasome inhibitor and that of a UPR inducer on cell death resulting from the overexpression of Pael receptors were examined (FIG. 11). Vectors (−) having no gene inserted therein or expression plasmids for Pael receptors (+) were gene-transferred with expression plasmids for enhanced green fluorescent proteins (EGFP) to SH-SY5Y cells. The cells were then cultured in the presence (Lc, 20 μM) or the absence (non) of lactacysin, and the presence of tunicamycin (Tm, 5 μg/ml) or 2-ME (2 mM) for 16 hours. Cell death was counted by the method described in Imai, Y. et al. (2000) J Biol Chem 275, 35661-35664. In FIG. 11, the line of error indicates the standard deviation (S.D.) calculated from three experiments.

For data set [3], the system named is Pael receptor. Description: Western blotting of 1% Triton X-100-soluble and -insoluble fractions of Pael receptor-transfected SH-SY5Y cells. The data set is classed as cell-based, human. The settings on record: 16 hours, lactacystin 10 μM, tunicamycin 1 μg/ml, 2-ME 1 mM; for Pael receptors in the insoluble fraction: 1% Triton X-100-insoluble fraction; for expression of BiP (GRP78) and of endogenous Parkin in the soluble fraction: cells over-expressing Pael receptors. The procedure:
Cells were suspended in a cytolysis buffer (consisting of 20 mM HEPES, pH 7.4, 120 mM NaCl, 5 mM EDTA, 10% glycerol, 1% Triton X-100 and Complete Protease Inhibitors [Roche Diagnostics]) and then lysed at 4° C. for 30 minutes. The forebrain cortex of the human cerebrum was suspended in a cytolysis buffer, and then crushed using a downs homogenizer. The sample was fractionated into surfactant-soluble and insoluble fractions, and then immuno-precipitated according to a modified method of Ward et al. (1995) Cell 83, 121-127. Specifically, the suspension was fractionated by centrifugation at 15,000×g for 30 minutes. The supernatant derived from 1% Triton X-100 soluble fraction was directly subjected to immunoprecipitation. The insoluble pellet fraction was washed 4 times in an ice-cooled cytolysis buffer. Subsequently, the fraction was subjected to lysis at 60° C. for 1 hour in a cytolysis buffer supplemented with sodium lauryl sulfate (SDS) with a final concentration of 1%. A cytolysis buffer containing 10 mM MgCl2 and 25 μg/ml DNase I and having a volume 10 times greater than that of the solution was added. The solution was allowed to react at 37° C. for 10 minutes. After centrifugation at 15,000×g for 30 minutes, the supernatant derived from 1% Triton X-100 insoluble fraction was subjected to immunoprecipitation using various antibodies and protein G-coupled or protein A/G (50/50%)-coupled Sepharose beads (Amersham-Pharmacia). The immunoprecipitate was washed 4 times in a cytolysis buffer containing no complete protease inhibitors. 1% Triton X-100-soluble and -insoluble fractions of total cell extract, or immunoprecipitates derived from the 1% Triton X-100-soluble fraction and -insoluble fraction were subjected to Western blot analysis using ECL detection reagent (Amersham-Pharmacia). Proteins were quantified using Coomassie protein assay reagent (Pierce).
Vectors (−) having no gene inserted therein or expression plasmids (+) for Pael receptors were gene-transferred to SH-SY5Y cells, and then the cells were cultured for 20 hours. Next, in the presence or the absence of lactacystin (10 μM) and in the presence of tunicamycin (1 μg/ml) or 2-mercaptoethanol (2-ME; 1 mM), the cells were cultured for 16 hours. The cells were lysed in a buffer containing 1% Triton X-100, and then fractionated by the method described in Ward et al., 1995 Cell 83, 121-127. Insoluble Pael receptors were immunoprecipitated as described above from the insoluble fraction of the same sample, and then analyzed using anti-Ub polyclonal antibodies (FIG. 10). 1% Triton-X100-insoluble or -soluble fraction was obtained under various conditions, including cases wherein Pael receptor cDNA had not been transfected (−) or transfected (+) to SH-SY5Y cells, and then subjected to Western blotting. Even in an untreated state, Pael receptors were already present in the insoluble fraction at a level equivalent to that of the soluble fraction.
For orientation: Immunoblotting shows a protein as a band on a membrane.

The mark [4] stands for this setting: Pael receptor-over-expressing SH-SY5Y cells, 16 hours, lactacystin 20 μM, tunicamycin 5 μg/ml, 2-ME 2 mM.
[5] abbreviates: control SH-SY5Y cells, 16 hours, tunicamycin 5 μg/ml, 2-ME 2 mM.

With `CC(=O)N[C@@H](CSC(=O)[C@]1([C@@H](O)C(C)C)NC(=O)[C@H](C)[C@@H]1O)C(=O)O` [lactacystin], the “intracellular distribution of Pael receptors” value (shortened to “intracellular distribution”) in the data set on Pael receptor [1] was “accumulated in the endoplasmic reticulum”. For the same molecule, the “Pael receptors remained after 180 minutes of chasing” value in the data set with Pael receptor [2] (SH-SY5Y cells over-expressing Parkin) came to 58%. In addition, the “Pael receptors remained after 180 minutes of chasing” value in the data set with Pael receptor [2] (control SH-SY5Y cells) came to 54%. Besides, the cells died entry in the data set on SH-SY5Y cells (human, 16 h, 20 μM) is recorded as “approximately 50%”. Further, in the data set with Pael receptor [3], the “Pael receptors in the insoluble fraction” value is “increased with a high-molecular-weight shift”; the “expression of BiP (GRP78) and of endogenous Parkin in the soluble fraction” value (“expression of BiP … in the soluble fraction” below) is “caused increases”.

Consider `OCCS` [2-ME, 2-mercaptoethanol], for which the “intracellular distribution” value in the data set with Pael receptor [1] is on record as “the same”. Also, in the data set with SH-SY5Y cells (setting [4]), the cells died result was “approximately 60%”. In addition, the cells died in the data set on SH-SY5Y cells (setting [5]) is 40%. Also, in the data set with Pael receptor [3], the “Pael receptors in the insoluble fraction” value was “increased with a high-molecular-weight shift”; the “expression of BiP … in the soluble fraction” value was “caused increases”.

For tunicamycin, the “intracellular distribution” value with Pael receptor [1] is listed as “the same”. For the same molecule, the cells died entry with SH-SY5Y cells (setting [4]) is “approximately 60%”. For the same molecule, the cells died in the data set with SH-SY5Y cells (setting [5]) is given as 40%. In addition, in the data set with Pael receptor [3], the “Pael receptors in the insoluble fraction” value is reported as “increased with a high-molecular-weight shift”; the “expression of BiP … in the soluble fraction” value is given as “caused increases”.

The values are drawn from patent US20060051835A1, “Pael receptor, cells and animal expressing pael receptor and method of screning remedy for parkinson's disease” (priority 2001, published 2006).
